Data reported in ChEMBL document CHEMBL4680217, “Discovery of PROTAC BCL-X degraders as potent anticancer agents with low on-target platelet toxicity” (Eur J Med Chem, 2020).
The source made the active and inactive calls. The rule behind the calls is not given here.

How the values were obtained:
[1] = tested on: MOLT-4; assay: Antiproliferative activity against human MOLT-4 cells assessed as reduction in cell viability measured after 48 hrs by MTS assay; type: functional, cell-based; details: MOLT-4, 48 h
[2] = tested on: RS4-11; assay: Antiproliferative activity against human RS4-11 cells assessed as reduction in cell viability measured after 48 hrs by MTS assay; type: functional, cell-based; details: RS4-11, 48 h
[3] = Selectivity index, ratio of IC50 for human platelet to IC50 for human MOLT-4 cells
[4] = tested on: MOLT-4; assay: Potency index, ratio of ABT-263 IC50 to test compound IC50 for antiproliferative activity against human MOLT-4 cells assessed as reduction in cell viability measured after 48 hrs by MTS assay; type: functional
[5] = target: T1, Protein cereblon/Bcl-2-like protein 1 (Homo sapiens, UniProt Q07817+Q96SW2); assay: Protac activity at CRBN/BCL-XL in human MOLT-4 cells assessed as induction of BCL-XL degradation measured after 16 hrs by immunoblotting analysis; type: cell-based
Target sequence in this assay (Q07817 whole entry): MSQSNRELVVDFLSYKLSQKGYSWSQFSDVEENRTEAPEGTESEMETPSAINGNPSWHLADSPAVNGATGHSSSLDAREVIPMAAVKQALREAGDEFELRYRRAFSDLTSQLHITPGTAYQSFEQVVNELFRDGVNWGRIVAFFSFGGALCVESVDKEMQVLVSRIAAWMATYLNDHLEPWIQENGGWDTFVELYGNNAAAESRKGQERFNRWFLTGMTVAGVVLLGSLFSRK
Target sequence in this assay (Q96SW2 whole entry): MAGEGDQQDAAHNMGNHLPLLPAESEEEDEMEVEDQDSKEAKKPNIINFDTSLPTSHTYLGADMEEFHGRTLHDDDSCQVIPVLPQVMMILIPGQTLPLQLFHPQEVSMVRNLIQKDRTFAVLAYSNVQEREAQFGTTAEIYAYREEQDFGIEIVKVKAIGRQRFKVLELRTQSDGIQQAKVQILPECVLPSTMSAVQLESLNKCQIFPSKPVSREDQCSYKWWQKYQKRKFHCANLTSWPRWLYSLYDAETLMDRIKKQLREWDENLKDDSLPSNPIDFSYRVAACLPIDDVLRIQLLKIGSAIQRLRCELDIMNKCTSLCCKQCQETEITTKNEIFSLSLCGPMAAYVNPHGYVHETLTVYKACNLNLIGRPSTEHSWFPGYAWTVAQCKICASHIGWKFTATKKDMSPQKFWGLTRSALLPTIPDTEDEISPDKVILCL

[6] = Toxicity in human platelet assessed as reduction in cell viability measured after 48 hrs by MTS assay; type: tissue-based; details: human platelets
[7] = tested on: NCI-H146; assay: Antiproliferative activity against human NCI-H146 cells assessed as reduction in cell viability measured after 48 hrs by MTS assay; type: functional, cell-based; details: NCI-H146, 48 h
[8] = target: T1, Protein cereblon/Bcl-2-like protein 1; assay: Protac activity at CRBN/BCL-XL in human MOLT-4 cells assessed as induction of BCL-XL degradation by measuring remaining BCL-XL level at 50 nM measured after 16 hrs by immunoblotting analysis relative to control; type: cell-based
Target sequence in this assay (Q07817 whole entry, looked up): as the sequence (Q07817 whole entry) above
Target sequence in this assay (Q96SW2 whole entry, looked up): as the sequence (Q96SW2 whole entry) above

[9] = target: Protein cereblon/Apoptosis regulator Bcl-2 (Homo sapiens) (UniProt P10415+Q96SW2); assay: Protac activity at CRBN/BCL2 in human MOLT-4 cells assessed as induction of BCL2 degradation at 50 nM measured after 16 hrs by immunoblotting analysis; type: cell-based
Chain of Protein cereblon/Apoptosis regulator Bcl-2 (Homo sapiens) (P10415 whole entry, looked up): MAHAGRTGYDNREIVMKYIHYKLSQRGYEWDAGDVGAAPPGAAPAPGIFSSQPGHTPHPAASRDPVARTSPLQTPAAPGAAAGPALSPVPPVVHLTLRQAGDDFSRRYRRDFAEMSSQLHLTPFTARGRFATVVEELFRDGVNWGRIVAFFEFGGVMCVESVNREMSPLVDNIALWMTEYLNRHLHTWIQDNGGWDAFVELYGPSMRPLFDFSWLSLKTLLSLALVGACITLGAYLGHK
Chain of Protein cereblon/Apoptosis regulator Bcl-2 (Homo sapiens) (Q96SW2 whole entry, looked up): as the sequence (Q96SW2 whole entry) above

[10] = target: T2, von Hippel-Lindau disease tumor suppressor/Bcl-2-like protein 1 (Homo sapiens, UniProt Q07817+P40337); assay: Protac activity at VHL/BCL-XL in human MOLT-4 cells assessed as induction of BCL-XL degradation by measuring remaining BCL-XL level at 100 nM measured after 16 hrs by immunoblotting analysis relative to control; type: cell-based
Target sequence in this assay (P40337 whole entry, looked up): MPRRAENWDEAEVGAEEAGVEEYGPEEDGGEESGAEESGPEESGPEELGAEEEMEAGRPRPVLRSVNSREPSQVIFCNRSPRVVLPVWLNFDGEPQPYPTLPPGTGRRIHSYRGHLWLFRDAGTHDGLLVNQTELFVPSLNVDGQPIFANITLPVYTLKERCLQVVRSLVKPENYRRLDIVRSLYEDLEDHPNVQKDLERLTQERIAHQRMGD
Target sequence in this assay (Q07817 whole entry, looked up): as the sequence (Q07817 whole entry) above

[11] = target: von Hippel-Lindau disease tumor suppressor/Apoptosis regulator Bcl-2 (Homo sapiens) (UniProt P10415+P40337); assay: Protac activity at VHL/BCL2 in human MOLT-4 cells assessed as induction of BCL2 degradation at 100 nM measured after 16 hrs by immunoblotting analysis; type: cell-based
Chain of von Hippel-Lindau disease tumor suppressor/Apoptosis regulator Bcl-2 (Homo sapiens) (P10415 whole entry, looked up): as the sequence (P10415 whole entry, looked up) above
Chain of von Hippel-Lindau disease tumor suppressor/Apoptosis regulator Bcl-2 (Homo sapiens) (P40337 whole entry, looked up): as the sequence (P40337 whole entry, looked up) above

[12] = target: T2, von Hippel-Lindau disease tumor suppressor/Bcl-2-like protein 1; assay: Protac activity at VHL/BCL-XL in human MOLT-4 cells assessed as induction of BCL-XL degradation measured after 16 hrs by immunoblotting analysis; type: cell-based
Target sequence in this assay (Q07817 whole entry): as the sequence (Q07817 whole entry) above
Target sequence in this assay (P40337 whole entry): as the sequence (P40337 whole entry, looked up) above

| Structure (SMILES) | IC50 [1] | IC50 [2] | Ratio IC50 [3] | Ratio IC50 [4] | DC50 [5] | IC50 at 48 h [6] | IC50 [7] | Activity [8] | Activity [9] | Activity [10] | Activity [11] | DC50 [12] |
| --- | --- | --- | --- | --- | --- | --- | --- | --- | --- | --- | --- | --- |
| CC1(C)CCC(c2ccc(Cl)cc2)=C(CN2CCN(c3ccc(C(=O)NS(=O)(=O)c4ccc(N[C@H](CCN5CCN(CCOCCOCCOCCNc6cccc7c6C(=O)N([C@@H]6CCC(=O)NC6=O)C7=O)CC5)CSc5ccccc5)c(S(=O)(=O)C(F)(F)F)c4)cc3)CC2)C1 | 17.3 nM | 38.5 nM | 90 | 12 | 4.5 nM | 1560 nM | 24.6 nM | 5% | inactive | – | – | – |
| Cc1ncsc1-c1ccc([C@H](C)NC(=O)[C@@H]2C[C@@H](O)CN2C(=O)[C@@H](NC(=O)CCCCCC(=O)N2CCN(CC[C@H](CSc3ccccc3)Nc3ccc(S(=O)(=O)NC(=O)c4ccc(N5CCN(CC6=C(c7ccc(Cl)cc7)CCC(C)(C)C6)CC5)cc4)cc3S(=O)(=O)C(F)(F)F)CC2)C(C)(C)C)cc1 [DT-2216] | 77.1 nM | 213 nM | >130 | – | – | > 10000 nM | 278 nM | – | – | 14% | inactive | 53 nM |
| CN(CCCNc1cccc2c1C(=O)N([C@@H]1CCC(=O)NC1=O)C2=O)CC[C@H](CSc1ccccc1)Nc1ccc(S(=O)(=O)NC(=O)c2ccc(N3CCN(CC4=C(c5ccc(Cl)cc5)CCC(C)(C)C4)CC3)cc2)cc1S(=O)(=O)C(F)(F)F | 32.5 nM | 129 nM | 101 | – | 10.6 nM | 3300 nM | 70.2 nM | 31% | inactive | – | – | – |
| Cc1ncsc1-c1ccc([C@H](C)NC(=O)[C@@H]2C[C@@H](O)CN2C(=O)[C@@H](NC(=O)CCCCCCN(C)CC[C@H](CSc2ccccc2)Nc2ccc(S(=O)(=O)NC(=O)c3ccc(N4CCN(CC5=C(c6ccc(Cl)cc6)CCC(C)(C)C5)CC4)cc3)cc2S(=O)(=O)C(F)(F)F)C(C)(C)C)cc1 | 81.3 nM | 189 nM | >123 | – | – | > 10000 nM | 265 nM | – | – | 28% | inactive | 71 nM |
| Cc1ncsc1-c1ccc([C@H](C)NC(=O)[C@@H]2C[C@@H](O)CN2C(=O)[C@@H](NC(=O)CCCCCN2CCN(CC[C@H](CSc3ccccc3)Nc3ccc(S(=O)(=O)NC(=O)c4ccc(N5CCN(CC6=C(c7ccc(Cl)cc7)CCC(C)(C)C6)CC5)cc4)cc3S(=O)(=O)C(F)(F)F)CC2)C(C)(C)C)cc1 | 82 nM | 76 nM | >122 | – | – | > 10000 nM | 203 nM | – | – | 43% | inactive | 93 nM |
